According to patent publication US11541068B2, “HMO compositions and methods for reducing autism spectrum disorder symptoms” (Glycom A/S, priority 2017, dated 2023):

Tests used:
[1] = system: faecal microbiota; assay: M-SHIME (M-TripleSHIME) in vitro gastrointestinal model: microbiota and bacterial metabolites; type: cell-based, human (healthy adult); conditions: proximal (PC) and distal (DC) colon reactor; means of three weekly samples
Description: The impact of the HMOs on microbiota and bacterial metabolites was investigated in the M-SHIME® (M-TripleSHIME®) in vitro gastrointestinal model (Prodigest). The typical reactor setup of the M-TripleSHIME® consisted of a succession of four reactors simulating the different parts of the human gastrointestinal tract. The first two reactors were of the fill-and-draw principle to simulate different steps in food uptake and digestion, with peristaltic pumps adding a defined amount of SHIME feed (140 mL 3×/day) and pancreatic and bile liquid (60 ml 3×/day), respectively, to the stomach and small intestine compartment and emptying the respective reactors after specified intervals. The last two compartments were continuously stirred reactors with constant volume and pH control. […]
The M-TripleSHIME® was run in four stages: • 1. […] The baseline microbial community composition and activity in the different reactors was determined by analysis of samples and was used as a reference. • 3. […]
Sample of the liquids in each reactor were collected regularly (three times in a week, on day 1, day 3 and day 5) and were analysed for microbial metabolites and the composition of the resident microbial community. In particular, the bifidobacteria composition was analysed using ITS profiling.

[2] = system: clostridia; conditions: children with regressive autism; 6-week oral course; cited from earlier work

| SMILES | effect on branched SCFA and ammonia production, compared with 2′-FL (FIG. 1) [1] | children with significant improvement in neurobehavioral symptoms [2] | gastrointestinal symptoms [2] |
| --- | --- | --- | --- |
| CC(=O)N[C@H]1[C@H](O[C@H]2[C@@H](O)[C@@H](CO)O[C@@H](O[C@H]3[C@H](O)[C@@H](O)C(O)O[C@@H]3CO)[C@@H]2O)O[C@H](CO)[C@@H](O[C@@H]2O[C@H](CO)[C@H](O)[C@H](O)[C@H]2O)[C@@H]1O (mixture of isomers) [LNnT, lacto-N-neotetraose] | similar |  |  |
| CN[C@H](CC(C)C)C(=O)N[C@H]1C(=O)N[C@@H](CC(N)=O)C(=O)N[C@H]2C(=O)N[C@H]3C(=O)N[C@H](C(=O)N[C@H](C(=O)O)c4cc(O)cc(O)c4-c4cc3ccc4O)[C@H](O)c3ccc(c(Cl)c3)Oc3cc2cc(c3O[C@@H]2O[C@H](CO)[C@@H](O)[C@H](O)[C@H]2O[C@H]2C[C@](C)(N)[C@H](O)[C@H](C)O2)Oc2ccc(cc2Cl)[C@H]1O [vancomycin] |  | eight of the ten children | improvement |
